# According to patent publication US8759342B2, “Benzo[1,4]oxazin-3-one, benzo[1,4]thiazin-3-one and quinolin-2-one urotensin II receptor antagonists” (Janssen Pharmaceutica NV, priority 2006, dated 2014):
# How the values were obtained:
# [1] = target: T1, Human UII receptors (Homo sapiens, UniProt Q9UKP6); assay: Human radioligand binding assay, (125I)-U-II on HSMM; details: 0.150 nM (125I)-U-II, intact Human Skeletal Muscle Myoblasts, 3 hrs, 25° C.; read-out: Ki
# T1 construct: host or cells: Human Skeletal Muscle Myoblasts (HSMM), intact adherent cells
# T1 sequence (Q9UKP6 1-389): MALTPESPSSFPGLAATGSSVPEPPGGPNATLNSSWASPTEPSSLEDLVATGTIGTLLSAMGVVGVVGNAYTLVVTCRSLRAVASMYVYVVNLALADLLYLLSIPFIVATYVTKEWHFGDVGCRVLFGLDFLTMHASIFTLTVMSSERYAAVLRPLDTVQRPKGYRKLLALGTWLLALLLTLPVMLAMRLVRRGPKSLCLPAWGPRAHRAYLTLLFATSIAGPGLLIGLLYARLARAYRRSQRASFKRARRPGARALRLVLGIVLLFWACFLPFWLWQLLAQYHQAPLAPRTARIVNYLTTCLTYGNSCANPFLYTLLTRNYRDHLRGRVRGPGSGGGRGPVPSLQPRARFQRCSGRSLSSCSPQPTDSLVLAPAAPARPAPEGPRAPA
# Procedure: Human Skeletal Muscle Myoblasts (HSMM) were obtained from Cambrex, and were cultured according to manufacturer's instruction. Cell viability was examined by trypan blue exclusion. Cells at less than 4 passages were used in all studies. […] The binding medium used was Dulbecco's modified Eagle's medium (DMEM) containing 2 mg/ml BSA and 25 mM HEPES (pH 7.4). […] The cells were washed 4× with the binding medium and solubilized in 1% SDS and 0.5 N NaOH. Radioactivity was quantified by gamma counting.
# [2] = target: T2, rat GPR14 (U-II receptor) (Rattus norvegicus, UniProt P49684); assay: Calcium flux assay (FLIPR); format: cell-based; details: Inhibition of acetyl-cyclic[Cys-Phe-Trp-Lys-(2-Nal)-Cys]-NH2 (1 nM) induced Ca2+ mobilization (FLIPR) in CHO cells transfected with rat UII receptor; 5 min incubation
# T2 construct: expressed in transfected cells
# T2 sequence (P49684 1-386): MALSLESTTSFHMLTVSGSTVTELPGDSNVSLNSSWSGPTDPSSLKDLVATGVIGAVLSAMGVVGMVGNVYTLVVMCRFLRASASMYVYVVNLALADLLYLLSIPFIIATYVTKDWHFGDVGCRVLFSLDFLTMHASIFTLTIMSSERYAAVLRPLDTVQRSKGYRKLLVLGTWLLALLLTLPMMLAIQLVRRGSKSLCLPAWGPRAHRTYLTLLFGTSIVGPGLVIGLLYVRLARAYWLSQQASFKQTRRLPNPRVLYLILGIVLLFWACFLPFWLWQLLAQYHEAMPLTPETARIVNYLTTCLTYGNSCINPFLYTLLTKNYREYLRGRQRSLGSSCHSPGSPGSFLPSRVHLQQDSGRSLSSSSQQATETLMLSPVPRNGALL
# Description: To derive these cells, the complete coding sequence of rat […] was amplified by nested PCR from rat heart marathon-Ready cDNA. […] The PCR products were cloned into pcDNA3 (Invitrogen) digested with EcoR I and Xba I. Clones containing rat U-II receptor were verified by complete sequencing of the U-II receptor insert to ensure a lack of PCR-introduced errors. The constructed vector was transfected into CHO cells by using lipofectamine (GIBCO BRL). CHO cells with high expression of rat U-II receptor were selected and established as stable cell lines by using G418. CHO cells were seeded at 25,000 cells per well into 96-well, black-wall, clear-bottom microtiter plates 24 hrs before assay. Cells in culture media (DMEM/F12 containing 15 mM HEPES, L-glutamine, pyridoxine hydrochloride; 10% fetal bovine serum; 1 mg/mL G418 sulfate; antibiotic-antimycotic; pH 7.4) were loaded with proprietary dye, from the FLIPR Calcium Assay Kit (Molecular Devices), prepared in assay buffer (Hanks Balanced Salts Solution, 20 mM HEPES, 0.1% BSA, 2.5 mM probenecid, pH 7.4), and incubated for 1 hr at 37° C. Calcium mobilization determinations were performed at room temperature (23° C.).
SMILES,Ki [1],IC50 [2]
"O=C(NCCc1ccccc1)c1ccccc1C1CCN(CCN2C(=O)COc3ccccc32)CC1 [Cpd 1, 2-{1-[2-(3-oxo-2,3-dihydro-benzo[1,4]oxazin-4-yl)-ethyl]-piperidin-4-yl}-N-phenethyl-benzamide]",2.9 µM,7.5 µM
O=C(NCCCc1ccccc1)c1ccccc1C1CCN(CCN2C(=O)COc3ccccc32)CC1 [Cpd 3],0.33 µM,4.2 µM
"O=C(NCCc1ccc2ccccc2c1)c1ccccc1C1CCN(CCN2C(=O)COc3ccccc32)CC1 [Cpd 20, N-(2-naphthalen-2-yl-ethyl)-2-{1-[2-(3-oxo-2,3-dihydro-benzo[1,4]oxazin-4-yl)-ethyl]-piperidin-4-yl}-benzamide]",0.72 µM,2 µM
"O=C(NCCc1c[nH]c2ccccc12)c1ccccc1C1CCN(CCN2C(=O)COc3ccccc32)CC1 [Cpd 26, N-[2-(1H-indol-3-yl)-ethyl]-2-{1-[2-(3-oxo-2,3-dihydro-benzo[1,4]oxazin-4-yl)-ethyl]-piperidin-4-yl}-benzamide]",0.75 µM,2 µM
"O=C(NCCc1ccc(Br)cc1)c1ccccc1C1CCN(CCN2C(=O)COc3ccccc32)CC1 [Cpd 34, N-[2-(4-bromo-phenyl)-ethyl]-2-{1-[2-(3-oxo-2,3-dihydro-benzo[1,4]oxazin-4-yl)-ethyl]-piperidin-4-yl}-benzamide]",0.62 µM,3 µM
"CC(C)(C)OC(=O)NCCCCNC(=O)c1ccccc1C1CCN(CCN2C(=O)COc3ccccc32)CC1 [Cpd 35, [4-(2-{1-[2-(3-oxo-2,3-dihydro-benzo[1,4]oxazin-4-yl)-ethyl]-piperidin-4-yl}-benzoylamino)-butyl]-carbamic acid tert-butyl ester]",0.59 µM,3 µM
"CC(C)(C)OC(=O)N1CCC(CNC(=O)c2ccccc2C2CCN(CCN3C(=O)COc4ccccc43)CC2)CC1 [Cpd 50, 4-[(2-{1-[2-(3-oxo-2,3-dihydro-benzo[1,4]oxazin-4-yl)-ethyl]-piperidin-4-yl}-benzoylamino)-methyl]-piperidine-1-carboxylic acid tert-butyl ester]",0.43 µM,2.5 µM
"O=C(NCCNC(=O)c1ccccc1C1CCN(CCN2C(=O)COc3ccccc32)CC1)Nc1cccc2ccccc12 [Cpd 55, N-[2-(3-naphthalen-1-yl-ureido)-ethyl]-2-{1-[2-(3-oxo-2,3-dihydro-benzo[1,4]oxazin-4-yl)-ethyl]-piperidin-4-yl}-benzamide]",0.84 µM,2 µM
"O=C(NCCc1ccccc1)c1cc(Cl)ccc1C1CCN(CCN2C(=O)COc3ccccc32)CC1 [Cpd 57, 5-chloro-2-{1-[2-(3-oxo-2,3-dihydro-benzo[1,4]oxazin-4-yl)-ethyl]-piperidin-4-yl}-N-phenethyl-benzamide]",0.19 µM,1.3 µM
"CC(C)(C)OC(=O)N1CCC(CNC(=O)c2cc(Cl)ccc2C2CCN(CCN3C(=O)COc4ccccc43)CC2)CC1 [Cpd 58, 4-[(5-chloro-2-{1-[2-(3-oxo-2,3-dihydro-benzo[1,4]oxazin-4-yl)-ethyl]-piperidin-4-yl}-benzoylamino)-methyl]-piperidine-1-carboxylic acid tert-butyl ester]",0.14 µM,0.6 µM
"CC(C)(C)OC(=O)NCCCCNC(=O)c1cc(Cl)ccc1C1CCN(CCN2C(=O)COc3ccccc32)CC1 [Cpd 60, [4-(5-chloro-2-{1-[2-(3-oxo-2,3-dihydro-benzo[1,4]oxazin-4-yl)-ethyl]-piperidin-4-yl}-benzoylamino)-butyl]-carbamic acid tert-butyl ester]",0.15 µM,0.5 µM
"Cc1ccc(C2CCN(CCN3C(=O)COc4ccccc43)CC2)cc1 [Cpd 90, 4-[2-(4-p-tolyl-piperidin-1-yl)-ethyl]-4H-benzo[1,4]oxazin-3-one]",–,15 µM
"Cc1ccccc1C1CCN(CCN2C(=O)COc3ccccc32)CC1 [Cpd 91, 4-[2-(4-o-tolyl-piperidin-1-yl)-ethyl]-4H-benzo[1,4]oxazin-3-one]",–,21 µM
"O=C1COc2ccccc2N1CCN1CCC(c2cccc(Cl)c2)CC1 [Cpd 92, 4-{2-[4-(3-chloro-phenyl)-piperidin-1-yl]-ethyl}-4H-benzo[1,4]oxazin-3-one]",–,20 µM
COC(=O)c1ccccc1C1CCN(CCN2C(=O)COc3ccccc32)CC1 [Cpd 93],–,32 µM
"CC(C)(C)OC(=O)N1CCN(CCNC(=O)c2ccccc2C2CC3CCC(C2)N3CCN2C(=O)COc3ccccc32)CC1 (stereo not drawn) [Cpd 96, 4-[2-(2-{8-[2-(3-oxo-2,3-dihydro-benzo[1,4]oxazin-4-yl)-ethyl]-8-aza-bicyclo[3.2.1]oct-3-yl}-benzoylamino)-ethyl]-piperazine-1-carboxylic acid tert-butyl ester]",–,3.5 µM
"CC(C)(C)OC(=O)NCCCCCNC(=O)c1ccccc1C1CC2CCC(C1)N2CCN1C(=O)COc2ccccc21 (stereo not drawn) [Cpd 97, [5-(2-{8-[2-(3-oxo-2,3-dihydro-benzo[1,4]oxazin-4-yl)-ethyl]-8-aza-bicyclo[3.2.1]oct-3-yl}-benzoylamino)-pentyl]-carbamic acid tert-butyl ester]",–,5.4 µM
"O=C1COc2ccccc2N1CCN1C2CCC1CC(c1ccccc1)C2 (stereo not drawn) [Cpd 101, 4-[2-(3-phenyl-8-aza-bicyclo[3.2.1]oct-8-yl)-ethyl]-4H-benzo[1,4]oxazin-3-one]",–,19 µM
"CC1C=C(c2ccc(Cl)cc2C(=O)NCCCCCNC(=O)OC(C)(C)C)CC(C)N1CCN1C(=O)COc2ccccc21 (stereo not drawn) [Cpd 102, [5-(5-chloro-2-{2,6-dimethyl-1-[2-(3-oxo-2,3-dihydro-benzo[1,4]oxazin-4-yl)-ethyl]-1,2,3,6-tetrahydro-pyridin-4-yl}-benzoylamino)pentyl]-carbamic acid tert-butyl ester]",–,7.6 µM
"O=C1COc2ccccc2N1CCN1CCC(C(=O)NCc2ccccc2)(c2ccccc2)CC1 [Cpd 104, 1-[2-(3-oxo-2,3-dihydro-benzo[1,4]oxazin-4-yl)-ethyl]-4-phenyl-piperidine-4-carboxylic acid benzylamide]",–,26 µM
"O=C1COc2ccccc2N1CCN1CCC(C(=O)NCCc2ccccc2)(c2ccccc2)CC1 [Cpd 105, 1-[2-(3-oxo-2,3-dihydro-benzo[1,4]oxazin-4-yl)-ethyl]-4-phenyl-piperidine-4-carboxylic acid phenethyl-amide]",–,7 µM
"CN(CCc1ccccc1)C(=O)C1(c2ccccc2)CCN(CCN2C(=O)COc3ccccc32)CC1 [Cpd 106, 1-[2-(3-oxo-2,3-dihydro-benzo[1,4]oxazin-4-yl)-ethyl]-4-phenyl-piperidine-4-carboxylic acid methyl-phenethyl-amide]",–,14 µM
"O=C1COc2ccccc2N1CCN1CCC(C(=O)NCCCc2ccccc2)(c2ccccc2)CC1 [Cpd 107, 1-[2-(3-oxo-2,3-dihydro-benzo[1,4]oxazin-4-yl)-ethyl]-4-phenyl-piperidine-4-carboxylic acid (3-phenyl-propyl)-amide]",–,9.1 µM
"O=C1COc2ccccc2N1CCN1CCC(C(=O)NCCCCc2ccccc2)(c2ccccc2)CC1 [Cpd 108, 1-[2-(3-oxo-2,3-dihydro-benzo[1,4]oxazin-4-yl)-ethyl]-4-phenyl-piperidine-4-carboxylic acid (4-phenyl-butyl)-amide]",–,8.8 µM
"O=C1COc2ccccc2N1CCN1CCC(C(=O)NCCc2ccccc2)(c2ccc(Cl)cc2)CC1 [Cpd 109, 4-(4-chloro-phenyl)-1-[2-(3-oxo-2,3-dihydro-benzo[1,4]oxazin-4-yl)-ethyl]-piperidine-4-carboxylic acid phenethyl-amide]",–,5 µM
